Paper PMC9502272, “A Metabolomics Approach for Predicting OATP1B-Type Transporter-Mediated Drug–Drug Interaction Liabilities” (Pharmaceutics, 2022)
Several values for one entry are separate records, joined by “and”; a condition that tells them apart may be missing. Equal entries are not always repeated.

What was measured:
Oatp1b2 = biological target: T1, Oatp1b2 (Mus musculus, UniProt Q9JJL3); experiment: Untargeted metabolomics of plasma from untreated wild-type and Oatp1b2(−/−) mice
T1 sequence (Q9JJL3 1-689): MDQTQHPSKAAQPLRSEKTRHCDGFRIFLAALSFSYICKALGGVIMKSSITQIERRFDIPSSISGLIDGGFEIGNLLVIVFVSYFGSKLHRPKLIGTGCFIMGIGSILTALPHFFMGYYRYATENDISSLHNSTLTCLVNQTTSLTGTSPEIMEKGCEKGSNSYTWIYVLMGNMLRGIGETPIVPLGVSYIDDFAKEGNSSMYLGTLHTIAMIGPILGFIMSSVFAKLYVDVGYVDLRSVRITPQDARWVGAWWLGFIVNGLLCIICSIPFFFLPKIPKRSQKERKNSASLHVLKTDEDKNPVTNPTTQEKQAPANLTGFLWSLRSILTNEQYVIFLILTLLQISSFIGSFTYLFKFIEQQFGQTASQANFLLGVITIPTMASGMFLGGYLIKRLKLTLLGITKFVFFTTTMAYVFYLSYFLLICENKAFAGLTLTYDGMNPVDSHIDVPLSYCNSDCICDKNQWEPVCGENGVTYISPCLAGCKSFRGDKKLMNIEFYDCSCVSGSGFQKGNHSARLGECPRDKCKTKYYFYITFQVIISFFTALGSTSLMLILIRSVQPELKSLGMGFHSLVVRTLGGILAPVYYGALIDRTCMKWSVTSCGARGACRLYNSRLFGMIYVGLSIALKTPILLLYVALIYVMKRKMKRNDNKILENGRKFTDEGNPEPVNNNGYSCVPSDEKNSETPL

Oatp1a/1b = experiment: Baseline plasma biomarker levels in Oatp1a/1b(−/−) cluster-knockout vs wild-type mice; assay type: in vivo, mouse; conditions: n = 6–10 per group
Protocol: Plasma concentrations of levels of CDCA-24G and glycochenodeoxycholate-3-sulfate (GCDCA-S) were determined using LC-MS/MS using a Vanquish UHPLC coupled with a Quantiva triple quadrupole mass spectrometer (Thermo Fisher Scientific, Waltham, MA, USA). An Accucore aQ column (50 × 2.1 mm, dp = 2.6 μm; Thermo Fisher Scientific) was protected by a C18 AQUASIL guard cartridge (2.1 mm × 10 mm, dp = 3 μm; Thermo Fisher Scientific). The injection volume of sample was 5.0 μL. The temperature of the autosampler rack was 4 °C, and the temperature of the column was maintained at 20 °C. The mobile phase was composed of solvent A (2 mmol ammonium acetate in water) and solvent B (100% methanol), and the total run time was 4.6 min. The gradient conditions were as follows: 0–0.5 min, 45% B; 0.5–2.0 min, 45 to 90%, 2.0–4.0 min, 90% B; 4.0–4.6 min, 45% B, delivered at a flow rate of 0.4 mL/min. The MS assay setting with the positive voltage applied to the ESI capillary was set at 3791 V, and the capillary temperatures was 335 °C with a vaporizer temperature of 350 °C. Argon was used as the collision gas at a pressure of 1.5 mTorr. Precursor molecular ions, and product ions were recorded for the confirmation and detection of GCDCA-S (528.4 > 448.3) and CDCA-24G (567.4 > 391.1), using [^2H5]-GCDCA-S (535.5 > 453.3) and [^2H5]-CDCA-24G (572.5 > 396.1) as respective internal standards. The lower limit of quantitation (LLOQ) for both analytes was determined to be 0.5 ng/mL. […]
Plasma concentrations of coproporphyrin I (CP-I) and III (CP-III) were determined similarly by LC-MS/MS. […] Precursor molecular ions and product ions were recorded for confirmation and detection of CP-I (655.4 > 596.4) and CP-III (655.4 > 596.3), using [^2H4]-CP-III (659.4 > 600.3) as the internal standard for both analytes. The LLOQ for both analytes were determined to be 1 ng/mL, and the within-run and between-run precisions as well as the accuracy were always within acceptable limits.

## C[C@H](CCC(=O)O[C@@H]1O[C@H](C(=O)O)[C@@H](O)[C@H](O)[C@H]1O)[C@H]1CC[C@H]2[C@@H]3[C@H](O)C[C@@H]4C[C@H](O)CC[C@]4(C)[C@H]3CC[C@]12C [CDCA-24G, chenodeoxycholate-24-glucuronide]
Oatp1b2; based on semi-quantitative analysis
  Increase of plasma level in Oatp1b2(−/−) mice vs. wild-type mice: ≈ 98 fold
Oatp1b2; plasma of untreated Oatp1b2-deficient (KO) vs wild-type (WT) mice, semi-quantitative, positive = higher in KO, n = 6 per group
  Fold of Change KO/WT: 97.9
Oatp1b2; plasma of untreated Oatp1b2-deficient mice, raw area counts rescaled to median = 1
  Mean value KO: 1.15
Oatp1b2; plasma of untreated wild-type mice, raw area counts rescaled to median = 1
  Mean value WT: .0120
Oatp1a/1b
  Plasma concentration of CDCA-24G in Oatp1a/1b(−/−) mice relative to wild type: 83 fold and > 80 fold
